# Results from patent US20070213226A1, “AGROCHEMICAL COMPOSITIONS COMPRISING ALKYLENEDIOL-MODIFIED POLYSILOXANES” (priority 2006, published 2007).
# Key:
# [1] = test system: Senna tora (sickle senna); test: Field trial, herbicide control of Senna tora, with and without simulated rain; format: in vivo; settings: 30 days after treatment, 720 g ae/ha
# Text: Statistical calculations were done on the means.
# [2] = test system: Poa pratensis (meadowgrass or Kentucky blue grass); test: Greenhouse trial, sulfonylurea herbicides for grass weed control; format: in vivo; settings: mean of 3 replicates ± SD
# Experimental: Greenhouse trials were carried out where the effect of ADS-1 on the efficacy of the sulfonylurea herbicides nicosulfuron (4.2% SC Motivell from BASF) and rimsulfuron (25% WG Cato from Dupont) for grass weed control was tested. Seed of the grass Poa pratensis (meadowgrass or Kentucky blue grass) was densely sown in pots and grown for 6 weeks until reaching a height of about 25 cm. The herbicides were tank mixed with the adjuvant ADS-1 at doses given also in the table. […] Researchers trained in the art have knowledge about such technology, and about the method of assessment.
smiles,measurement,setting,value
"O=C(O)CNCP(=O)(O)O [Glyphosate, glyphosate]",Control (%) of Senna tora,[1]; with 4 mm rain aftertreatment,75.0 d %
same,Control (%) of Senna tora,[1]; without rain aftertreatment,96.0 a %
"COc1cc(OC)nc(NC(=O)NS(=O)(=O)c2ncccc2C(=O)N(C)C)n1 [Nicosulfuron, nicosulfuron]",% Control,"[2]; Table 9, dose/ha 25 ml Motivell",87 ± 3%
"CCS(=O)(=O)c1cccnc1S(=O)(=O)NC(=O)Nc1nc(OC)cc(OC)n1 [Rimsulfuron, rimsulfuron]",% Control,"[2]; Table 10, dose/ha 10 g Cato",43 ± 6%
